Where “and” joins values, the source holds several entries; their conditions need not be identical. Equal values may be shown once. Read-outs that look alike come from different tables or passages of the source.
Experiments:
[1] = assay type: physicochemical, dog; settings: for Bench top stability, Mean concentration / Bench top stability, RE % (mean vs nominal): dog, 17 h
Experimental: For the remaining validation tests, a calibration curve and triplicates QCs at the low, mid and high levels were analyzed with each sample set. The following samples were also analyzed either in conjunction with one of the precision and accuracy runs or in one of the additional validation runs: Samples from six lots of control dog plasma for specificity. Two concentration levels of unextracted QC-samples in triplicate (solvent standards) were analyzed for the evaluation of the recovery of sodium 2,2-dimethylbutyrate and DMV in dog plasma. Two levels of QC samples (Low QC and High QC in triplicate) were subjected to three freeze/thaw cycles at approximately −70° C. prior to extraction to evaluate freeze/thaw stability. Two levels of QC samples (Low QC and High QC in triplicate) were placed on the bench top for approximately 17 hours prior to extraction for the evaluation of the bench top stability. Triplicate low QC samples and triplicate high QC samples were stored for one month and three months in a freezer at approximately −70° C., and then extracted and analyzed to evaluate long term stability in dog plasma. Three aliquots of a dilution QC sample diluted 10-fold.
Bench top stability was evaluated at room temperature for approximately 17 hours. Triplicate QC-Low and QC-High samples were extracted and analyzed after these storage conditions. The CV % values for the QC-Low and QC-High stability samples are 3.2% and 3.4%, respectively. To calculate the RE %, the measured mean concentration was compared to the nominal concentration. The RE % values for the QC-Low and QC-High stability samples are 2.1% and −10.7%, respectively.

[2] = assay type: physicochemical, human; settings: for Extract freezer stability, Mean concentration / Extract freezer stability, RE % (mean vs nominal): human, 8 h
Experimental: (§1) The following samples were also analyzed either in conjunction with one of the precision and accuracy runs or in one of the additional validation runs. Samples from six lots of control human plasma for specificity. Samples from six lots of control human plasma fortified with internal standard for specificity. Two concentration levels of unextracted QC-samples in triplicate (solvent standards) were analyzed for the evaluation of the recovery of sodium 2,2-dimethylbutyrate and DMV in human plasma. Two levels of QC samples (Low QC and High QC in triplicate) were subjected to three freeze/thaw cycles at approximately −70° C. prior to extraction to evaluate freeze/thaw stability. Two levels of QC samples (Low QC and High QC in triplicate) were placed on the bench top for approximately 17 hours prior to extraction for the evaluation of the bench top stability. Triplicate low QC samples and triplicate high QC samples were stored for one month and three months in a freezer at approximately −70° C., and then extracted and analyzed to evaluate long term stability in human plasma. Two levels of extracted QC samples (Low QC and High QC) were re-analyzed after approximately 71 hours in the autosampler at room temperature to evaluate the extract autosampler stability. Two levels of extracted QC samples (Low QC and High QC) were re-analyzed after approximately 8 hours in the freezer at approximately −20° C. to evaluate the extract freeze stability. Three aliquots of a dilution QC sample diluted 10-fold. Triplicate dilutions of the old stock solution (stored at approximately 4° C.) and new stock solutions prepared at intervals of two weeks and one month. Statistical calculations in the report tables were calculated from unrounded concentration values taken directly from the raw data. The concentration values were rounded for display purposes.
QC-Low and QC-High extract samples in triplicate were analyzed and then stored in a −20° C. freezer for approximately 8 hours. These QC samples were then re-analyzed to evaluate the extract freezer stability. The CV % values for the QC-Low and QC-High stability samples are 8.6% and 1.2%, respectively. To calculate the RE %, the measured mean concentration was compared to the nominal concentration. The RE % values for the QC-Low and QC-High stability samples are −6.3% and −13.0%, respectively.

[3] = assay type: physicochemical, human; settings: for Bench top stability, Mean concentration / Bench top stability, RE % (mean vs nominal): human, 22.5 h
Experimental: as §1, with “Two levels of QC samples (Low QC and High QC in triplicate) were placed on the bench top for approximately 17 hours prior to extraction for the evaluation of the bench top stability.” left out
Triplicate QC-Low and QC-High samples were extracted and analyzed after these storage conditions. The CV % values for the QC-Low and QC-High stability samples are 7.8% and 2.9%, respectively. To calculate the RE %, the measured mean concentration was compared to the nominal concentration. The RE % values for the QC-Low and QC-High stability samples are 11.8% and −3.4%, respectively.

[4] = Extract autosampler stability (human plasma extract); assay type: physicochemical; settings: for Extract autosampler stability, Mean concentration / Extract autosampler stability, RE % (mean vs nominal) / Extract autosampler stability, concentration found (replicate): at least 71 hours in autosampler, ambient
Experimental: as §1
After extraction, the QC samples were analyzed and left in the autosampler for at least 71 hours, then re-injected onto the LC-MS/MS. Triplicate QC-Low and QC-High samples were analyzed for the autosampler stability determination. The CV % values for the QC-Low and QC-High stability samples are 7.5% and 6.4%, respectively. To calculate the RE %, the measured mean concentration was compared to the nominal concentration. The RE % values for the QC-Low and QC-High stability samples are 1.9% and 4.6%, respectively.

CCC(C)(C)C(=O)[O-].[Na+] [Sodium 2,2-Dimethylbutyrate]
Time stable on bench top ([1]; dog plasma, ambient bench top storage): approximately 17 hours | Bench top stability, Mean concentration ([1]; 0.6 μg/mL): 0.613 µg/mL | Bench top stability, RE % (mean vs nominal) ([1]; 0.6 μg/mL): 2.1% | Bench top stability, Mean concentration ([1]; 40 μg/mL): 35.7 µg/mL | Bench top stability, RE % (mean vs nominal) ([1]; 40 μg/mL): −10.7% | Time stable in the extract in the freezer ([2]; human plasma extract, freezer at −20° C.): at least 8 hours | Extract freezer stability, Mean concentration ([2]; 0.6 μg/mL): 0.562 µg/mL | Extract freezer stability, RE % (mean vs nominal) ([2]; 0.6 μg/mL): −6.3% | Extract freezer stability, Mean concentration ([2]; 40 μg/mL): 34.8 µg/mL | Extract freezer stability, RE % (mean vs nominal) ([2]; 40 μg/mL): −13.0% | Time stable on bench top ([3]; human plasma, ambient bench top storage): 22.5 h | Bench top stability, Mean concentration ([3]; 0.6 μg/mL): 0.671 µg/mL | Bench top stability, RE % (mean vs nominal) ([3]; 0.6 μg/mL): 11.8% | Bench top stability, Mean concentration ([3]; 40 μg/mL): 38.7 µg/mL | Bench top stability, RE % (mean vs nominal) ([3]; 40 μg/mL): −3.4% | Time stable in the extract in the autosampler ([4]; ambient storage in the autosampler): at least 71 hours | Extract autosampler stability, Mean concentration ([4]; QC-High, nominal 40.0 μg/mL): 41.8 µg/mL | Extract autosampler stability, RE % (mean vs nominal) ([4]; QC-High, nominal 40.0 μg/mL): 4.6% | Extract autosampler stability, concentration found (replicate) ([4]; QC-High, nominal 40.0 μg/mL): 42.9 µg/mL and 43.8 µg/mL and 38.8 µg/mL | Extract autosampler stability, Mean concentration ([4]; QC-Low, nominal 0.60 μg/mL): 0.611 µg/mL | Extract autosampler stability, RE % (mean vs nominal) ([4]; QC-Low, nominal 0.60 μg/mL): 1.9% | Extract autosampler stability, concentration found (replicate) ([4]; QC-Low, nominal 0.60 μg/mL): 0.663 µg/mL and 0.575 µg/mL and 0.596 µg/mL

From patent publication US20110033946A1, “DETECTION OF SHORT-CHAIN FATTY ACIDS IN BIOLOGICAL SAMPLES” (HEMAQUEST PHARMACEUTICALS, INC., priority 2009, published 2011)
